The experiment has as its system THP1 cells (LPS induced TNF release). Briefly: Lipopolysaccharide-Activated THP1 Cell TNF Production Assay. The format is cell-based. The note with it: Homo sapiens, THP-1; THP1 cells, bacterial LPS, secreted TNF-α after 3 h at 37° C.; read-out: IC50 values in the THP1 cell assay (LPS induced TNF release). A digest of the protocol:
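THP1 cells at 1E6/mL were treated with 3-fold serial compound dilutions and LPS (1 μg/mL stock) for 3 h at 37 °C. Secreted TNF-α was quantified by electrochemiluminescent sandwich immunoassay. Percent of DMSO control versus concentration was fitted to a 4-parameter equation.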

Molecules are shown by their SMILES. Where only a bound is given, the exact number is not on record here.

Broadly, the IC50 is the midpoint of a concentration-inhibition curve.

`COc1nc(-c2ccccc2)nc(N(C)c2ccnc(N[C@@H](C)Cc3cccc([C@@H](C)N)c3)n2)n1` [Example 126, N^2-((S)-1-(3-((R)-1-Aminoethyl)phenyl)propan-2-yl)-N^4-(4-methoxy-6-phenyl-1,3,5-triazin-2-yl)-N^4-methylpyrimidine-2,4-diamine]: the IC50 is ≤ 20 µM.
The value for `CN(c1cccc(-c2ccc(C(F)(F)F)cc2)n1)c1ccnc(NCCc2ccccc2)n1` [Example 128, N^4-Methyl-N^2-phenethyl-N^4-(6-(4-(trifluoromethyl)phenyl)pyridin-2-yl)-pyrimidine-2,4-diamine] was ≤ 20 µM; that for `CN(c1cccc(-c2cccc(C(F)(F)F)c2)n1)c1ccnc(NCCc2ccccc2)n1` [Example 129, N^4-Methyl-N^2-phenethyl-N^4-(6-(3-(trifluoromethyl)phenyl)pyridin-2-yl)-pyrimidine-2,4-diamine] was ≤ 20 µM; that for `CN(c1cccc(-c2ccccc2C(F)(F)F)n1)c1ccnc(NCCc2ccccc2)n1` [Example 130, N^4-Methyl-N^2-phenethyl-N^4-(6-(2-(trifluoromethyl)phenyl)pyridin-2-yl)-pyrimidine-2,4-diamine] was ≤ 20 µM.
Regarding `CN(c1cccc(-c2ccc(Cl)cc2)n1)c1ccnc(NCCc2ccccc2)n1` [Example 134, N^4-(6-(4-Chlorophenyl)pyridin-2-yl)-N^4-methyl-N^2-phenethylpyrimidine-2,4-diamine], the IC50 is ≤ 20 µM.
As to `CN(c1cccc(-c2cccc(Cl)c2)n1)c1ccnc(NCCc2ccccc2)n1` [Example 135, N^4-(6-(3-chlorophenyl)pyridin-2-yl)-N^4-methyl-N^2-phenethylpyrimidine-2,4-diamine], the IC50 was ≤ 20 µM.
In the case of `CN(c1cccc(-c2ccccc2Cl)n1)c1ccnc(NCCc2ccccc2)n1` [Example 136, N^4-(6-(2-Chlorophenyl)pyridin-2-yl)-N^4-methyl-N^2-phenethylpyrimidine-2,4-diamine], the IC50 is ≤ 20 µM.
For the molecule `Cc1ccc(-c2cccc(N(C)c3ccnc(NCCc4ccccc4)n3)n2)cc1` [Example 137, N^4-Methyl-N^2-phenethyl-N^4-(6-p-tolylpyridin-2-yl)-pyrimidine-2,4-diamine], the IC50 was ≤ 20 µM.
The value for `Cc1cccc(-c2cccc(N(C)c3ccnc(NCCc4ccccc4)n3)n2)c1` [Example 138, N^4-Methyl-N^2-phenethyl-N^4-(6-m-tolylpyridin-2-yl)-pyrimidine-2,4-diamine] was ≤ 20 µM; that for `Cc1ccccc1-c1cccc(N(C)c2ccnc(NCCc3ccccc3)n2)n1` [Example 139, N^4-Methyl-N^2-phenethyl-N^4-(6-o-tolylpyridin-2-yl)-pyrimidine-2,4-diamine] was ≤ 20 µM; that for `COc1ccc(-c2cccc(N(C)c3ccnc(NCCc4ccccc4)n3)n2)cc1` [Example 140, N^4-(6-(4-Methoxyphenyl)pyridin-2-yl)-N^4-methyl-N^2-phenethylpyrimidine-2,4-diamine] was ≤ 20 µM.
With `COc1cccc(-c2cccc(N(C)c3ccnc(NCCc4ccccc4)n3)n2)c1` [Example 141, N^4-(6-(3-Methoxyphenyl)pyridin-2-yl)-N^4-methyl-N^2-phenethylpyrimidine-2,4-diamine], the half-inhibitory concentration (IC50) was ≤ 20 µM.
The value for `COc1ccccc1-c1cccc(N(C)c2ccnc(NCCc3ccccc3)n2)n1` [Example 142, N^4-(6-(2-Methoxyphenyl)pyridin-2-yl)-N^4-methyl-N^2-phenethylpyrimidine-2,4-diamine] was ≤ 20 µM; that for `CN(c1cccc(-c2cc(F)cc(F)c2)n1)c1ccnc(NCCc2ccccc2)n1` [Example 143, N^4-(6-(3,5-Difluorophenyl)pyridin-2-yl)-N^4-methyl-N^2-phenethylpyrimidine-2,4-diamine] was ≤ 20 µM.
With `CN(c1cccc(-c2ccc(F)c(F)c2)n1)c1ccnc(NCCc2ccccc2)n1` [Example 144, N^4-(6-(3,4-Difluorophenyl)pyridin-2-yl)-N^4-methyl-N^2-phenethylpyrimidine-2,4-diamine], the IC50 is ≤ 20 µM.
The value for `CN(c1cccc(-c2cccc(F)c2F)n1)c1ccnc(NCCc2ccccc2)n1` [Example 145, N^4-(6-(2,3-Difluorophenyl)pyridin-2-yl)-N^4-methyl-N^2-phenethylpyrimidine-2,4-diamine] was ≤ 20 µM.
With `CN(c1cccc(-c2ccoc2)n1)c1ccnc(NCCc2ccccc2)n1` [Example 146, N^4-(6-(Furan-3-yl)pyridin-2-yl)-N^4-methyl-N^2-phenethylpyrimidine-2,4-diamine], the IC50 was ≤ 20 µM.
Under `CN(c1cccc(-c2ccsc2)n1)c1ccnc(NCCc2ccccc2)n1` [Example 147] stands ≤ 20 µM; under `CN(c1cccc(C2=CCCCC2)n1)c1ccnc(NCCc2ccccc2)n1` [Example 148, N^4-(6-cyclohexenylpyridin-2-yl)-N^4-methyl-N^2-phenethylpyrimidine-2,4-diamine], ≤ 20 µM; under `CN(c1cccc(-c2ccco2)n1)c1ccnc(NCCc2ccccc2)n1` [Example 149, N^4-(6-(Furan-2-yl)pyridin-2-yl)-N^4-methyl-N^2-phenethylpyrimidine-2,4-diamine], ≤ 20 µM.
For the molecule `CN(c1cccc(-c2cccs2)n1)c1ccnc(NCCc2ccccc2)n1` [Example 150, N^4-Methyl-N^2-phenethyl-N^4-(6-(thiophen-2-yl)pyridin-2-yl)pyrimidine-2,4-diamine], the IC50 is ≤ 20 µM.
Take `CN(c1cccc(Cc2ccccc2)n1)c1ccnc(NCCc2ccccc2)n1` [Example 151, N^4-(6-Benzylpyridin-2-yl)-N^4-methyl-N^2-phenethylpyrimidine-2,4-diamine]: the IC50 was ≤ 20 µM.
Under `CN(c1cccc(-c2ccccc2)n1)c1ccnc(N[C@H]2CC[C@H](N)CC2)n1` [Example 153, N^2-((1s,4s)-4-aminocyclohexyl)-N^4-methyl-N^4-(6-phenylpyridin-2-yl)pyrimidine-2,4-diamine] stands ≤ 20 µM; under `CC(Cc1cccc(CO)c1)Nc1nccc(N(C)c2cccc(-c3cccc(F)c3)n2)n1` (stereo not shown) [Example 156, (3-(2-(4-((6-(3-Fluorophenyl)pyridin-2-yl)(methyl)amino)pyrimidin-2-ylamino)propyl)phenyl)methanol], ≤ 20 µM; under `CC(Cc1cccc(CN)c1)Nc1nccc(N(C)c2cccc(-c3cccc(F)c3)n2)n1` (stereo not shown) [Example 157, N^2-(1-(3-(Aminomethyl)phenyl)propan-2-yl)-N^4-(6-(3-fluorophenyl)pyridin-2-yl)-N^4-methylpyrimidine-2,4-diamine], ≤ 20 µM.
Under `Cn1c(Nc2ccnc(NCCc3ccccc3Cl)n2)cc(-c2ccccc2)cc1=O` [Example 160, 6-(2-(2-Chlorophenethylamino)pyrimidin-4-ylamino)-1-methyl-4-phenylpyridin-2(1H)-one] stands ≤ 20 µM; under `CN(c1ccnc(NC(C)(C)CNC(=O)OC(C)(C)C)n1)c1cc(-c2ccccc2)cc(=O)n1C` [Example 161, tert-Butyl 2-methyl-2-(4-(methyl(1-methyl-6-oxo-4-phenyl-1,6-dihydropyridin-2-yl)amino)pyrimidin-2-ylamino)propylcarbamate], ≤ 20 µM.
The value for `CN(c1ccnc(NC2CCN(C(=O)OC(C)(C)C)CC2)n1)c1cc(-c2ccccc2)cc(=O)n1C` [Example 162, tert-Butyl 4-(4-(methyl(1-2-yl)amino)pyrimidin-2-ylamino)piperidine-1-carboxylate] was ≤ 20 µM.

For the origin of these results see US20060069110A1, “Substituted heterocyclic compounds and methods of use” (priority 2004, published 2006).
